Laboratory results from patent US9290451B2 (Hoffmann-La Roche Inc., priority 2011, dated 2016).

What was measured:
human CB2 receptors = human CB2 receptors (Homo sapiens (Human), UniProt P34972); experiment: cAMP assay, CHO cells expressing human CB2 receptors; format: cell-based; conditions: CHO cells expressing human CB2, cAMP; read-out: human CB2 EC50
Summary of the method: (§1)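 CHO cells expressing human CB1 or CB2 were preincubated 30 min at 30 °C in Krebs Ringer bicarbonate buffer with 1 mM IBMX, then exposed to compound 30 min at 30 °C. cAMP quantified by time-resolved FRET against a cAMP standard curve; EC50 values derived.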

human CB1 receptors = human CB1 receptors (Homo sapiens (Human), UniProt P21554); experiment: cAMP assay, CHO cells expressing human CB1 receptors; format: cell-based; conditions: CHO cells expressing human CB1, cAMP; read-out: human CB1 EC50
Sequence of human CB1 receptors (P21554 whole entry): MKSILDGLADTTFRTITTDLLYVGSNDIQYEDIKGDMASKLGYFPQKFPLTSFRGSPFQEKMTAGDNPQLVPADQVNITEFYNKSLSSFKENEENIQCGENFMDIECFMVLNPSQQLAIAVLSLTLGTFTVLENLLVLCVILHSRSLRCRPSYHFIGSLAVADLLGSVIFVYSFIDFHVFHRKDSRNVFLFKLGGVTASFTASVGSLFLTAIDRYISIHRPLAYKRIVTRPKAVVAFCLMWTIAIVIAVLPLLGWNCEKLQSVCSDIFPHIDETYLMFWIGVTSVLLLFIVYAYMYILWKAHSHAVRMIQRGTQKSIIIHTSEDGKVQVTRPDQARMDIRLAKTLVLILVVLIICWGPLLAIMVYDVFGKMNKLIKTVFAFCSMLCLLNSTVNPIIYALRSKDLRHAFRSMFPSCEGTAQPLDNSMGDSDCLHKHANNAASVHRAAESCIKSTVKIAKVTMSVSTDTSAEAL
Summary of the method: as §1

Sequence of human CB2 receptors (P34972 whole entry): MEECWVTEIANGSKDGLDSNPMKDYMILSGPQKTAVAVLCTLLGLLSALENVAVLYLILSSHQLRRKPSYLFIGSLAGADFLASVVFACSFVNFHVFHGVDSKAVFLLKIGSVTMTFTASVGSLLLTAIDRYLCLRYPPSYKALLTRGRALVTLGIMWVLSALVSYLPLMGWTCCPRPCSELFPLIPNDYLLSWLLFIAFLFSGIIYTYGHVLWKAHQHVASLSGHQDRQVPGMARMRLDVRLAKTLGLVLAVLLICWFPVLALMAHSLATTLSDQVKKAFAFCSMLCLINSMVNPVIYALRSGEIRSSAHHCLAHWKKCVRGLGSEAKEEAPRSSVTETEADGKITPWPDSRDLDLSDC

SMILES: Cc1nc([C@H](NC(=O)c2ccc(C3CC3)c(OCC3CC3)n2)C2CC2)no1 [Example 197, (−)-5-Cyclopropyl-6-cyclopropylmethoxy-pyridine-2-carboxylic acid [cyclopropyl-(5-methyl-[1,2,4]oxadiazol-3-yl)-methyl]-amide]
- EC50 (human CB2 receptors): 33.2 nM
- EC50 (human CB1 receptors): > 10000 nM

SMILES: Cc1nc([C@@H](NC(=O)c2ccc(C3CC3)c(OCC3CC3)n2)C2CC2)no1 [Example 198, (+)-5-Cyclopropyl-6-cyclopropylmethoxy-pyridine-2-carboxylic acid [cyclopropyl-(5-methyl-[1,2,4]oxadiazol-3-yl)-methyl]-amide]
- EC50 (human CB2 receptors): 6.8 nM
- EC50 (human CB1 receptors): > 10000 nM

SMILES: Cc1nc(C(C)(C)NC(=O)c2ccc(C3CC3)c(OCc3ccccn3)n2)no1 [Example 199, 5-Cyclopropyl-N-(2-(5-methyl-1,2,4-oxadiazol-3-yl)propan-2-yl)-6-(pyridin-2-ylmethoxy)picolinamide]
- EC50 (human CB2 receptors): 151 nM
- EC50 (human CB1 receptors): > 10000 nM

SMILES: CC(C)C[C@H](NC(=O)c1ccc(C2CC2)c(OCc2ccccn2)n1)C(N)=O [Example 200, (S)-N-(1-Amino-4-methyl-1-oxopentan-2-yl)-5-cyclopropyl-6-(pyridin-2-ylmethoxy)picolinamide]
- EC50 (human CB2 receptors): 23.3 nM
- EC50 (human CB1 receptors): > 10000 nM

SMILES: CNC(=O)[C@@H](NC(=O)c1ccc(C2CC2)c(OCc2ccccn2)n1)C(C)(C)C [Example 201, (S)-5-Cyclopropyl-N-(3,3-dimethyl-1-(methylamino)-1-oxobutan-2-yl)-6-(pyridin-2-ylmethoxy)picolinamide]
- EC50 (human CB2 receptors): 26.7 nM
- EC50 (human CB1 receptors): > 10000 nM

SMILES: Cc1nc(C(C)(C)NC(=O)c2ccc(C3CC3)c(OCC3CCOCC3)n2)no1 [Example 202, 5-Cyclopropyl-N-(2-(5-methyl-1,2,4-oxadiazol-3-yl)propan-2-yl)-6-((tetrahydro-2H-pyran-4-yl)methoxy)picolinamide]
- EC50 (human CB2 receptors): 23.6 nM
- EC50 (human CB1 receptors): 615 nM

SMILES: CNC(=O)[C@H](CC(C)C)NC(=O)c1ccc(C2CC2)c(OCC2CCOCC2)n1 [Example 203, (S)-5-Cyclopropyl-N-(4-methyl-1-(methylamino)-1-oxopentan-2-yl)-6-((tetrahydro-2H-pyran-4-yl)methoxy)picolinamide]
- EC50 (human CB2 receptors): 2.7 nM
- EC50 (human CB1 receptors): 74.9 nM

SMILES: CNC(=O)[C@@H](NC(=O)c1cccc(-c2ccccc2)n1)C(C)(C)C [Example 204, (S)-N-(3,3-Dimethyl-1-(methylamino)-1-oxobutan-2-yl)-6-phenylpicolinamide]
- EC50 (human CB2 receptors): 13.2 nM
- EC50 (human CB1 receptors): 737 nM

SMILES: CNC(=O)[C@H](CC(C)C)NC(=O)c1cccc(-c2ccccc2)n1 [Example 205, (S)-N-(4-Methyl-1-(methylamino)-1-oxopentan-2-yl)-6-phenylpicolinamide]
- EC50 (human CB2 receptors): 57.8 nM
- EC50 (human CB1 receptors): > 10000 nM

SMILES: CNC(=O)[C@@H](NC(=O)c1ccc(N2CC(F)(F)C2)c(OCC2CCCO2)n1)C(C)(C)C (stereo partly drawn) [Example 206, 5-(3,3-Difluoroazetidin-1-yl)-N-((S)-3,3-dimethyl-1-(methylamino)-1-oxobutan-2-yl)-6-((tetrahydrofuran-2-yl)methoxy)picolinamide]
- EC50 (human CB2 receptors): 25 nM
- EC50 (human CB1 receptors): > 10000 nM

SMILES: CCC(CC)(NC(=O)c1ccc(N2CC(F)(F)C2)c(OCC2CC2)n1)C(=O)O [Example 207, 2-(6-(Cyclopropylmethoxy)-5-(3,3-difluoroazetidin-1-yl)picolinamido)-2-ethylbutanoic acid]
- EC50 (human CB2 receptors): 14.4 nM
- EC50 (human CB1 receptors): > 10000 nM

SMILES: CNC(=O)[C@@H](NC(=O)c1ccc(N2CC(F)(F)C2)c(OCC2CC2)n1)C(C)(C)C [Example 208, (S)-6-(Cyclopropylmethoxy)-5-(3,3-difluoroazetidin-1-yl)-N-(3,3-dimethyl-1-(methylamino)-1-oxobutan-2-yl)picolinamide]
- EC50 (human CB2 receptors): 8.9 nM
- EC50 (human CB1 receptors): > 10000 nM

SMILES: CNC(=O)[C@H](CC(C)(C)C)NC(=O)c1ccc(N2CC(F)(F)C2)c(OCC2CC2)n1 [Example 209, (S)-6-(Cyclopropylmethoxy)-5-(3,3-difluoroazetidin-1-yl)-N-(4,4-dimethyl-1-(methylamino)-1-oxopentan-2-yl)picolinamide]
- EC50 (human CB2 receptors): 2.5 nM
- EC50 (human CB1 receptors): > 10000 nM

SMILES: CNC(=O)[C@H](CC(C)C)NC(=O)c1cccc(-c2cccc(F)c2)n1 [Example 210, (S)-6-(3-Fluorophenyl)-N-(4-methyl-1-(methylamino)-1-oxopentan-2-yl)picolinamide]
- EC50 (human CB2 receptors): 62 nM
- EC50 (human CB1 receptors): > 10000 nM

SMILES: CNC(=O)[C@H](CC(C)C)NC(=O)c1cccc(-c2cccc(C(F)(F)F)c2)n1 [Example 211, (S)-N-(4-Methyl-1-(methylamino)-1-oxopentan-2-yl)-6-(3-(trifluoromethyl)phenyl)picolinamide]
- EC50 (human CB2 receptors): 57.1 nM
- EC50 (human CB1 receptors): > 10000 nM

SMILES: CNC(=O)[C@H](CC(C)C)NC(=O)c1cccc(-c2ccc(F)c(Cl)c2)n1 [Example 212, (S)-6-(3-Chloro-4-fluorophenyl)-N-(4-methyl-1-(methylamino)-1-oxopentan-2-yl)picolinamide]
- EC50 (human CB2 receptors): 13.4 nM
- EC50 (human CB1 receptors): > 10000 nM

SMILES: CNC(=O)[C@@H](NC(=O)c1cccc(-c2cccc(F)c2)n1)C(C)(C)C [Example 213, (S)-N-(3,3-Dimethyl-1-(methylamino)-1-oxobutan-2-yl)-6-(3-fluorophenyl)picolinamide]
- EC50 (human CB2 receptors): 12.8 nM
- EC50 (human CB1 receptors): 361 nM

SMILES: CNC(=O)[C@@H](NC(=O)c1cccc(-c2cccc(C(F)(F)F)c2)n1)C(C)(C)C [Example 214, (S)-N-(3,3-Dimethyl-1-(methylamino)-1-oxobutan-2-yl)-6-(3-(trifluoromethyl)phenyl)-picolinamide]
- EC50 (human CB2 receptors): 53.7 nM
- EC50 (human CB1 receptors): 1630 nM

SMILES: CNC(=O)[C@@H](NC(=O)c1cccc(-c2cccc(OC)c2)n1)C(C)(C)C [Example 215, (S)-N-(3,3-Dimethyl-1-(methylamino)-1-oxobutan-2-yl)-6-(3-methoxyphenyl) picolinamide]
- EC50 (human CB2 receptors): 125 nM
- EC50 (human CB1 receptors): > 10000 nM

SMILES: CNC(=O)[C@@H](NC(=O)c1cccc(-c2ccc(F)c(Cl)c2)n1)C(C)(C)C [Example 216, (S)-6-(3-Chloro-4-fluorophenyl)-N-(3,3-dimethyl-1-(methylamino)-1-oxobutan-2-yl)picolinamide]
- EC50 (human CB2 receptors): 2.7 nM
- EC50 (human CB1 receptors): 116 nM

SMILES: O=C(N[C@@H](c1cccnc1)C(F)(F)F)c1ccc(C2CC2)c(OCC2CC2)n1 [Example 217, (S)-5-Cyclopropyl-6-(cyclopropylmethoxy)-N-(2,2,2-trifluoro-1-(pyridin-3-yl)ethyl)-picolinamide]
- EC50 (human CB2 receptors): 41.1 nM
- EC50 (human CB1 receptors): > 10000 nM

SMILES: O=C(N[C@H](c1cccnc1)C(F)(F)F)c1ccc(C2CC2)c(OCC2CC2)n1 [Example 218, (R)-5-Cyclopropyl-6-(cyclopropylmethoxy)-N-(2,2,2-trifluoro-1-(pyridin-3-yl)ethyl)-picolinamide]
- EC50 (human CB2 receptors): 24.1 nM
- EC50 (human CB1 receptors): > 10000 nM

SMILES: Cc1nc(C(NC(=O)c2ccc(C3CC3)c(OCC3CCOCC3)n2)C2CC2)no1 (centres unmarked) [Example 219, 5-Cyclopropyl-6-(tetrahydro-pyran-4-ylmethoxy)-pyridine-2-carboxylic acid [cyclopropyl-(5-methyl-[1,2,4]oxadiazol-3-yl)-methyl]-amide]
- EC50 (human CB2 receptors): 10.8 nM
- EC50 (human CB1 receptors): 2140 nM

SMILES: CCC(CC)(NC(=O)c1ccc(N(CC(F)(F)F)CC(F)(F)F)c(OCC2CC2)n1)C(=O)OC [Example 220, 2-({5-[Bis-(2,2,2-trifluoro-ethyl)-amino]-6-cyclopropylmethoxy-pyridine-2-carbonyl}-amino)-2-ethyl-butyric acid methyl ester]
- EC50 (human CB2 receptors): 1.6 nM
- EC50 (human CB1 receptors): 129 nM

SMILES: Cc1nc(C(NC(=O)c2ccc(N3CC(F)(F)C3)c(OCC3CC3)n2)C2CC2)no1 (centres unmarked) [Example 221, 6-Cyclopropylmethoxy-5-(3,3-difluoro-azetidin-1-yl)-pyridine-2-carboxylic acid [cyclopropyl-(5-methyl-[1,2,4]oxadiazol-3-yl)-methyl]-amide]
- EC50 (human CB2 receptors): 12.8 nM
- EC50 (human CB1 receptors): 10000 nM

SMILES: CN(C)C(=O)[C@H](CC1CC1)NC(=O)c1ccc(C2CC2)c(OCC2CC2)n1 [Example 222, 5-Cyclopropyl-6-cyclopropylmethoxy-pyridine-2-carboxylic acid ((S)-2-cyclopropyl-1-dimethylcarbamoyl-ethyl)-amide]
- EC50 (human CB2 receptors): 3.2 nM
- EC50 (human CB1 receptors): > 10000 nM

SMILES: O=C(NC(c1ccccn1)C(F)(F)F)c1ccc(C2CC2)c(OCC2CCOCC2)n1 (centres unmarked) [Example 223, 5-Cyclopropyl-6-(tetrahydro-pyran-4-ylmethoxy)-pyridine-2-carboxylic acid (2,2,2-trifluoro-1-pyridin-2-yl-ethyl)-amide]
- EC50 (human CB2 receptors): 10.9 nM
- EC50 (human CB1 receptors): 655 nM

SMILES: O=C(NC(c1ccccn1)C(F)(F)F)c1ccc(N2CC(F)(F)C2)c(OCC2CC2)n1 (centres unmarked) [Example 224, 6-Cyclopropylmethoxy-5-(3,3-difluoro-azetidin-1-yl)-pyridine-2-carboxylic acid (2,2,2-trifluoro-1-pyridin-2-yl-ethyl)-amide]
- EC50 (human CB2 receptors): 22.2 nM
- EC50 (human CB1 receptors): 648 nM

SMILES: CNC(=O)[C@@H](NC(=O)c1ccc(C2CC2)c(OCC2CC2)n1)c1ccccc1 [Example 225, 5-Cyclopropyl-6-cyclopropylmethoxy-pyridine-2-carboxylic acid ((−)-methylcarbamoyl-phenyl-methyl)-amide]
- EC50 (human CB2 receptors): 48.4 nM
- EC50 (human CB1 receptors): > 10000 nM

SMILES: CN(C)C(=O)[C@@H](NC(=O)c1ccc(C2CC2)c(OCC2CC2)n1)c1ccccc1 [Example 226, 5-Cyclopropyl-6-cyclopropylmethoxy-pyridine-2-carboxylic acid ((+)-dimethylcarbamoyl-phenyl-methyl)-amide]
- EC50 (human CB2 receptors): 19.9 nM
- EC50 (human CB1 receptors): > 10000 nM

SMILES: CN(C)C(=O)[C@H](NC(=O)c1ccc(C2CC2)c(OCC2CC2)n1)c1ccccc1 [Example 227, 5-Cyclopropyl-6-cyclopropylmethoxy-pyridine-2-carboxylic acid ((−)-dimethylcarbamoyl-phenyl-methyl)-amide]
- EC50 (human CB2 receptors): 40.8 nM
- EC50 (human CB1 receptors): > 10000 nM
